≈ marks a conversion by molar mass, not a printed value. Where two headings read alike, the source gives them in different places.
Columns and labels:
[1] = test system: Comamonas terrigena KY 4174; test: Antibacterial spectrum by agar dilution method (pH 7.0); type: cell-based
Text: (§1) The antibacterial spectra of 7-deazaadenosine and 7-deazainosine against various microorganisms by agar dilution method (pH 7.0) are shown in the following Table 3.

[2] = test system: Mycobacterium smegmatis KY 3848; test: as above; type: cell-based; details: Mycolicibacterium smegmatis
Text: as §1

Escherichia coli KY 4271 = test: as above; type: cell-based
Text: as §1

[3] = test system: Pseudomonas alcaligenes KY 4656; test: as above; type: cell-based; details: Aquipseudomonas alcaligenes
Text: as §1

[4] = test system: Mycobacterium phlei KY 3486; test: as above; type: cell-based; details: Mycolicibacterium phlei
Text: as §1

[5] = test system: Bacillus subtilis KY 4273; test: as above; type: cell-based
Text: as §1

Solubility = type: physicochemical

Structure (SMILES)	MIC ([1]; Comamonas terrigena, KY4174, pH 7) [mg/L]	MIC ([2]; KY3848, pH 7) [mg/L]	MIC (Escherichia coli KY 4271; Escherichia coli, KY4271, pH 7) [mg/L]	MIC ([3]; KY4656, pH 7) [mg/L]	MIC ([4]; KY3486, pH 7) [mg/L]	MIC ([5]; Bacillus subtilis, KY4273, pH 7) [mg/L]	Solubility (Solubility; in hexane, benzene and ether)	Solubility (Solubility; in methanol)	Solubility (Solubility; in water)	MIC ([1]; KY4174, Comamonas terrigena KY 4174, agar dilution, pH 7.0, read-out: MIC) [mg/L]	MIC ([2]; KY3848, Mycobacterium smegmatis KY 3848, agar dilution, pH 7.0, read-out: MIC) [mg/L]	MIC (Escherichia coli KY 4271; KY4271, Escherichia coli KY 4271, agar dilution, pH 7.0, read-out: MIC) [mg/L]	MIC ([3]; KY4656, Pseudomonas alcaligenes KY 4656, agar dilution, pH 7.0, read-out: MIC) [mg/L]	MIC ([4]; KY3486, Mycobacterium phlei KY 3486, agar dilution, pH 7.0, read-out: MIC) [mg/L]	MIC ([5]; KY4273, Bacillus subtilis KY 4273, agar dilution, pH 7.0, read-out: MIC) [mg/L]
Nc1ncnc2c1ccn2[C@@H]1O[C@H](CO)[C@@H](O)[C@H]1O [7-Deazaadenosine, 7-deazaadenosine]	10 (≈ 37.6 µM)	20 (≈ 75.1 µM)	> 100	10 (≈ 37.6 µM)	< 0.045	100 (≈ 376 µM)	insoluble	poorly soluble	Soluble						
O=c1[nH]cnc2c1ccn2[C@@H]1O[C@H](CO)[C@@H](O)[C@H]1O [7-Deazainosine, 7-deazainosine]							insoluble	poorly soluble	Soluble	40 (≈ 150 µM)	> 100	> 100	40 (≈ 150 µM)	< 0.045	> 100

From patent publication US4316957A, “Process for the production of 7-deazaadenosine and 7-deazainosine” (Abbott Laboratories, priority 1977, dated 1982)
